# Reference: patent publication US6713276B2, “Modulation of Aβ levels by β-secretase BACE2” (Scios, Inc., priority 2000, dated 2004)
# How the values were obtained:
# APP751sw = experiment: cell-free β-secretase assay, β-NTF ELISA, APP751sw substrate; format: biochemical, human; settings: membrane extracts of transfected HEK293 cells, pH 4.5, 37° C.
# Method: The β-secretase assay consists of two different parts, an incubation or reaction phase to generate β-NTF and an ELISA part to capture and measure the β-NTF generated by β-secretase. The β-secretase ELISA was performed as follows. Each well of a 96 well plate containing a flat bottom (high protein binding, Corning, N.Y.) was coated with 100 μl of the monoclonal capture antibody 8E5 (at ˜8-10 μg/ml) (Johnson-Wood et al. Proc. Natl. Acad. Sci. USA 94: 1550-1555 [1997]). The plate was then covered with parafilm and incubated overnight at 4° C. or alternatively for 2 hours at 37° C. […]
# One hundred μl of a 1:5000 dilution of a goat anti rabbit IgG-HRP in Antibody-Conjugate Buffer was then added to each well, and the plate incubated at room temperature for one hour. […] After sufficient blue color had developed, the reactions were stopped by adding 100 μl of 5N H2SO4 to each well, and the amount of βNTF was determined by reading the plate at 450 nm in a Softmax spectrophotometer.
# Equal amounts of membrane extracts from either mock, BACE or BACE2 transfected HEK293 cells were incubated with partially purified full length APP751 sw or APP751wt for the indicated times. The formation of β-NTF was then determined using the respective β-NTF specific ELISA as described in General Methodology.
# [1] = system: APP751sw processing in HEK293T cells; experiment: co-transfection with APP751sw in HEK293T cells, ELISA of conditioned medium; format: cell-based, human; settings: co-transfected with APP751sw
# Method: (§1) Expression vectors containing BACE and BACE2 cDNAs were transfected into HEK293T cells in the presence of APP751sw or CT100 (Shoji et al., Science 258: 126-129 [1992]; Lichtenthaler et al., Proc. Natl. Acad. Sci. USA 96: 3053-3058 [1999]). Transfections were performed in 24 well plates using Lipofectamine Plus (Gibco/BRL, Bethesda, Md.) and DNA concentrations were kept constant by including non-specific DNA. Expression plasmids were tested for BACE and BACE2 expression by Western blotting. Cell culture supernatants were collected 48 hours and 72 hours post-transfection, and assayed for α-NTF, β-NTF and Aβ formation. β-NTF measurement was performed as described below. α-NTF was captured like β-NTF but was detected with biotinylated 2H3 (Johnson-Wood et al., Proc. Nati. Acad. Sci. USA 94: 1550-1555 [1997]). Aβ levels were determined by an ELISA using monoclonal antibodies 266 for capture and biotinylated 3D6 for detection (see Johnson-Wood et al., [1997] ibid for antibody epitope description). Aβ42, in contrast, was captured using 21F 12 and detected with biotinylated 3D6. Cell extracts prepared 72 hour post-transfection were separated by SDS-PAGE (Novex) and probed with CT695 (Zymed) for APP and CTFs as well as with an Aβ specific monoclonal antibody WO2 (kindly provided by K. Beyreuther; Ida et al., J. Biol. Chem. 271: 22908-22914 [1996]). […]
# Given the ability of BACE2 to cleave APP at the β-secretase site in vitro, we investigated the role of BACE2 in HEK293T cells relative to BACE. […] Cell supernatants were collected 48 hours or 72 hours post-transfection and analyzed for α-NTF, β-NTF, total Aβ and Aβ42 as described in Genenral Methodology. […]
# In an independent experiment, we addressed whether BACE2 competed with the ability of BACE to cleave APP at the β-secretase site. HEK293T cells were co-transfected with constant amounts of APP751sw and BACE, and increasing levels of BACE2. β-NTF and Aβ levels were then measured in culture supernatant (FIG. 3). […]
# [2] = system: APP751sw processing in HEK293T cells; experiment: pulse-chase / pulse-labeling and immunoprecipitation of APP CTFs, Aβ and p3 in HEK293T cells; format: cell-based, human; settings: HEK293T, APP751sw, 15 min pulse, chase up to 90 minutes
# Method: Forty eight hours post-transfection, HEK293T cells were labeled for 15 minutes with 200 μCi Promix L [^35S] in vitro cell labeling mix (Amersham) and chased for up to 90 minutes according to standard procedures. APP CTFs were immunoprecipitated with antibodies 369 (Cai et al., Science 259: 514-516 [1993]). For immunoprecipitations of Aβ and p3 from conditioned medium, HEK293T cells were labeled for 5 hours with 300 μCi Promix L [^35S] in vitro cell labeling mix (Amersham) 48 hours post-transfection. Aβ40 and Aβ42 as well as the corresponding p3 species were immunoprecipitated with monoclonal antibodies 1702.1 and 108.1, respectively (Higaki et al., J. Med. Chem. 42: 3889-3898 [1999]).
# To analyze the metabolism of APP as a consequence of BACE or BACE2 overexpression we performed a parallel pulse-chase experiment (FIG. 2e). HEK293T cells transfected as above were pulse-labeled and chased for up to 90 minutes and APP and CTFs were immunoprecipitated. […] An alternative β-secretase related cleavage product (β′-CTF) was also formed consistent with previous reports (Vassar et al., Science [1999] ibid; Higaki et al., Neuron 14: 651-659 [1995]). Consistent with its β-secretase activity, BACE2 overexpression led to a significant initial increase in β-CTF levels compared to mock-transfected cells. […] To determine whether BACE affected γ-secretase activity, we determined whether p3 could be formed. […]
# [3] = system: APP751sw processing in SK-N-MC cells; experiment: co-transfection with APP751sw in SK-N-MC neuroblastoma cells, ELISA of conditioned medium; format: cell-based, human; settings: co-transfected with APP751sw
# Method: as §1, with “3D6.” for “3D6. Cell extracts prepared 72 hour post-transfection were separated by SDS-PAGE (Novex) and probed with CT695 (Zymed) for APP and CTFs as well as with an Aβ specific monoclonal antibody WO2 (kindly provided by K. Beyreuther; Ida et al., J. Biol. Chem. 271: 22908-22914 [1996]).”
# We further assessed the modulatory effect of BACE2 on Aβ formation using a human neuroblastoma cell line, SK-N-MC.
# [4] = system: CT100 (C-terminal 100 amino acids of APP) processing in HEK293T cells; experiment: co-transfection with CT100 in HEK293T cells, ELISA, Western blot, pulse-chase; format: cell-based, human; settings: HEK293T, co-transfected with CT100
# Method: as §1, with “3D6.” for “3D6. Cell extracts prepared 72 hour post-transfection were separated by SDS-PAGE (Novex) and probed with CT695 (Zymed) for APP and CTFs as well as with an Aβ specific monoclonal antibody WO2 (kindly provided by K. Beyreuther; Ida et al., J. Biol. Chem. 271: 22908-22914 [1996]).”
# This effect prompted investigation into whether β-secretase cleavage was required for Aβ suppression. The effects of BACE2 on the metabolism of the C-terminal 100 amino acids of APP (CT100), a construct that mimics prior β-secretase cleavage (Shoji et al., Science 258: 126-129 [1992]), was analyzed. […]
substance,measurement,setting,value
"BACE: β-site APP-cleaving enzyme, membrane-bound aspartyl protease, cloned from human brain cDNAs and overexpressed",β-NTF formation (β-secretase cleavage in vitro),APP751sw,time-dependent increase in β-NTF formation
same,total Aβ in conditioned medium,[1],Aβ production was not significantly stimulated
same,α-NTF levels in conditioned medium,[1],α-NTF levels were proportionally reduced
same,total OD of α-NTF plus β-NTF,[1]; APP751sw alone ~2.59,~2.3 OD
same,"APP CTF turnover (β-CTF, β′-CTF, α-CTF)",[2],accumulation of β-CTF
same,Aβ in conditioned medium,[3],very pronounced increase in both β-NTF and Aβ
same,β-NTF in conditioned medium,[3],very pronounced increase in both β-NTF and Aβ
same,total Aβ and Aβ42 levels in conditioned medium,[4],did not affect the levels of Aβ
